Measurements published in patent publication US12077503B2, “Substituted cyclic amides and their use as herbicides” (FMC CORPORATION, priority 2015, dated 2024).
Where two headings read alike, the source gives them in different places.

What was measured:
Kochia (Kochia scoparia) = assay: Test A preemergence; format: in vivo; settings: Bassia scoparia, pre-emergence, 240 h; for pest or weed control at 125 g/ha: 125 g ai/ha; for pest or weed control at 500 g/ha: 500 g ai/ha
Summary of the method: (§1)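 Visual injury scores from 0, no effect, to 100, complete control, were assigned versus untreated controls roughly 10 d after treatment in the greenhouse. Test chemicals, formulated with surfactant in a non-phytotoxic solvent, were applied to planted seeds as a preemergence soil spray or postemergence to one- to two-leaf plants 2 to 10 cm tall, in loam–sand soil.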

[1] = test system: barnyardgrass (Echinochloa crus-galli); assay: Test A preemergence; format: in vivo; settings: Echinochloa crus-galli, pre-emergence, 240 h; for pest or weed control at 125 g/ha: 125 g ai/ha; for pest or weed control at 500 g/ha: 500 g ai/ha
Summary of the method: as §1

[2] = test system: ryegrass, Italian (Italian ryegrass, Lolium multiflorum); assay: Test A preemergence; format: in vivo; settings: Lolium multiflorum, pre-emergence, 240 h; for pest or weed control at 125 g/ha: 125 g ai/ha; for pest or weed control at 500 g/ha: 500 g ai/ha
Summary of the method: as §1

[3] = test system: giant foxtail (Setaria faberii); assay: Test A preemergence; format: in vivo; settings: Setaria faberi, pre-emergence, 240 h; for pest or weed control at 125 g/ha: 125 g ai/ha; for pest or weed control at 500 g/ha: 500 g ai/ha
Summary of the method: as §1

[4] = test system: pigweed (Amaranthus retroflexus); assay: Test A preemergence; format: in vivo; settings: Amaranthus retroflexus, pre-emergence, 240 h; for pest or weed control at 125 g/ha: 125 g ai/ha; for pest or weed control at 500 g/ha: 500 g ai/ha
[5] = preemergence, 0 to 100 scale where 0 is no effect and 100 is complete control, approx. 10 d, read-out: Kochia plant response rating
[6] = preemergence, 0 to 100 scale where 0 is no effect and 100 is complete control, read-out: Kochia plant response rating
[7] = preemergence, 0 to 100 scale where 0 is no effect and 100 is complete control, approx. 10 d, read-out: Barnyardgrass plant response rating
[8] = preemergence, 0 to 100 scale where 0 is no effect and 100 is complete control, read-out: Barnyardgrass plant response rating
[9] = preemergence, 0 to 100 scale where 0 is no effect and 100 is complete control, approx. 10 d, read-out: Ryegrass, Italian plant response rating
[10] = preemergence, 0 to 100 scale where 0 is no effect and 100 is complete control, read-out: Ryegrass, Italian plant response rating
[11] = preemergence, 0 to 100 scale where 0 is no effect and 100 is complete control, approx. 10 d, read-out: Foxtail, Giant plant response rating
[12] = preemergence, 0 to 100 scale where 0 is no effect and 100 is complete control, read-out: Foxtail, Giant plant response rating
[13] = preemergence, 0 to 100 scale where 0 is no effect and 100 is complete control, approx. 10 d, read-out: Pigweed plant response rating
[14] = preemergence, 0 to 100 scale where 0 is no effect and 100 is complete control, read-out: Pigweed plant response rating
[15] = Preemergence, visual injury vs untreated controls after approximately 10 d, read-out: Kochia plant response rating (0 to 100 scale where 0 is no effect and 100 is complete control)
[16] = Preemergence, visual injury vs untreated controls after approximately 10 d, read-out: Barnyardgrass plant response rating (0 to 100 scale where 0 is no effect and 100 is complete control)
[17] = Preemergence, visual injury vs untreated controls after approximately 10 d, read-out: Ryegrass, Italian plant response rating (0 to 100 scale where 0 is no effect and 100 is complete control)
[18] = Preemergence, visual injury vs untreated controls after approximately 10 d, read-out: Foxtail, Giant plant response rating (0 to 100 scale where 0 is no effect and 100 is complete control)
[19] = Preemergence, visual injury vs untreated controls after approximately 10 d, read-out: Pigweed plant response rating (0 to 100 scale where 0 is no effect and 100 is complete control)
[20] = preemergence, visual injury rating about 10 d after treatment, 0 to 100 scale (0 no effect, 100 complete control), read-out: Kochia plant response rating
[21] = preemergence, visual injury rating about 10 d after treatment, 0 to 100 scale (0 no effect, 100 complete control), read-out: Barnyardgrass plant response rating
[22] = preemergence, visual injury rating about 10 d after treatment, 0 to 100 scale (0 no effect, 100 complete control), read-out: Ryegrass, Italian plant response rating
[23] = preemergence, visual injury rating about 10 d after treatment, 0 to 100 scale (0 no effect, 100 complete control), read-out: Foxtail, Giant plant response rating
[24] = preemergence, visual injury rating about 10 d after treatment, 0 to 100 scale (0 no effect, 100 complete control), read-out: Pigweed plant response rating

| Compound | melting point [°C] | pest or weed control at 125 g/ha (Kochia (Kochia scoparia); [5]) [%] | pest or weed control at 125 g/ha [2, 9] [%] | pest or weed control at 125 g/ha [4, 13] [%] | pest or weed control at 125 g/ha (Kochia (Kochia scoparia); [6]) [%] | pest or weed control at 125 g/ha [1, 8] [%] | pest or weed control at 125 g/ha [3, 12] [%] | pest or weed control at 125 g/ha [4, 14] [%] | pest or weed control at 500 g/ha (Kochia (Kochia scoparia); [20]) [%] | pest or weed control at 500 g/ha [1, 21] [%] | pest or weed control at 500 g/ha [2, 22] [%] | pest or weed control at 500 g/ha [3, 23] [%] | pest or weed control at 500 g/ha [4, 24] [%] | other results |
| --- | --- | --- | --- | --- | --- | --- | --- | --- | --- | --- | --- | --- | --- | --- |
| O=C1NC[C@H](c2ccc(F)c(OC(F)(F)C(F)F)c2)[C@H]1C(=O)Nc1ccc(F)cc1F (racemic) [Compound 1154] | 102 to 106 | 70 | 30 | 60 | – | – | – | – | – | – | – | – | – | pest or weed control at 500 g/ha (Kochia (Kochia scoparia); [6]): 90%; pest or weed control at 125 g/ha [1, 7]: 90%; pest or weed control at 500 g/ha [1, 8]: 90%; pest or weed control at 500 g/ha [2, 10]: 50%; pest or weed control at 125 g/ha [3, 11]: 90%; pest or weed control at 500 g/ha [3, 12]: 90%; pest or weed control at 500 g/ha [4, 14]: 80% |
| CN1C[C@H](c2ccc(C(F)(F)F)cc2)[C@@H](C(=O)Nc2ccccc2[S+](C)[O-])C1=O (some centres unmarked) [Compound 915] | 181 to 184 | – | – | – | 80 | 100 | 90 | 80 | – | – | – | – | – | pest or weed control at 500 g/ha (Kochia (Kochia scoparia); [15]): 90%; pest or weed control at 500 g/ha [1, 16]: 100%; pest or weed control at 125 g/ha [2, 10]: 40%; pest or weed control at 500 g/ha [2, 17]: 70%; pest or weed control at 500 g/ha [3, 18]: 100%; pest or weed control at 500 g/ha [4, 19]: 90% |
| CN1C[C@H](c2ccc(C(F)(F)F)cc2)[C@@H](C(=O)Nc2ccc(F)cc2Br)C1=O [Compound 934] | 123 to 126 | – | – | – | 50 | 70 | 90 | 0 | 80 | 90 | 60 | 90 | 80 | – |
| Cc1cc(F)ccc1NC(=O)[C@H]1C(=O)N(C)C[C@@H]1c1ccc(C(F)(F)F)cc1 [Compound 936] | 119 to 122 | – | – | – | 60 | 70 | 90 | 20 | 90 | 90 | 70 | 90 | 80 | – |
| Cc1cccc(NC(=O)[C@H]2C(=O)N(C)C[C@@H]2c2ccc(C(F)(F)F)cc2)c1F [Compound 939] | 178 to 181 | – | – | – | 30 | 90 | 90 | 0 | 60 | 90 | 20 | 90 | 0 | – |
| Cc1cccc(NC(=O)[C@H]2C(=O)N(C)C[C@@H]2c2ccc(C(F)(F)F)cc2)c1C [Compound 941] | 166 to 169 | – | – | – | 0 | 80 | 90 | 0 | 0 | 90 | 0 | 90 | 0 | – |
| CN1C[C@H](c2ccc(C(F)(F)F)cc2)[C@@H](C(=O)Nc2ccc(F)cc2C(F)(F)F)C1=O [Compound 942] | 113 to 116 | – | – | – | 70 | 70 | 90 | 80 | 90 | 90 | 20 | 90 | 90 | – |

The next lines start with results.

| melting point [°C] | Compound | pest or weed control at 125 g/ha (Kochia (Kochia scoparia); [5]) [%] | pest or weed control at 125 g/ha [2, 9] [%] | pest or weed control at 125 g/ha [4, 13] [%] | pest or weed control at 125 g/ha (Kochia (Kochia scoparia); [6]) [%] | pest or weed control at 125 g/ha [1, 8] [%] | pest or weed control at 125 g/ha [3, 12] [%] | pest or weed control at 125 g/ha [4, 14] [%] | pest or weed control at 500 g/ha (Kochia (Kochia scoparia); [20]) [%] | pest or weed control at 500 g/ha [1, 21] [%] | pest or weed control at 500 g/ha [2, 22] [%] | pest or weed control at 500 g/ha [3, 23] [%] | pest or weed control at 500 g/ha [4, 24] [%] | other results |
| --- | --- | --- | --- | --- | --- | --- | --- | --- | --- | --- | --- | --- | --- | --- |
| 132 to 135 | CN1CC(c2cccc(I)c2)C(C(=O)Nc2ccccc2F)C1=O (centres unmarked) [Compound 846] | – | – | – | 20 | 90 | 90 | 0 | – | – | – | – | – | pest or weed control at 500 g/ha (Kochia (Kochia scoparia); [15]): 70%; pest or weed control at 500 g/ha [1, 16]: 90%; pest or weed control at 125 g/ha [2, 10]: 60%; pest or weed control at 500 g/ha [2, 17]: 70%; pest or weed control at 500 g/ha [3, 18]: 90%; pest or weed control at 500 g/ha [4, 19]: 0% |
| 128 to 132 | CCc1cccc([C@H]2CCNC(=O)[C@@H]2C(=O)Nc2cccc(F)c2F)c1 [Compound 1058] | 0 | 0 | 0 | – | – | – | – | 30 | 100 | 40 | 100 | 0 | pest or weed control at 125 g/ha ([1]; Preemergence, visual injury rating after approximately 10 d, read-out: Barnyardgrass plant response rating (0 to 100 scale, 0 is no effect, 100 is complete control)): 90%; pest or weed control at 125 g/ha ([3]; Preemergence, visual injury rating after approximately 10 d, read-out: Foxtail, Giant plant response rating (0 to 100 scale, 0 is no effect, 100 is complete control)): 90% |
| 97 to 101 | CN1CC(c2cccc(/C=C/Cl)c2)C(C(=O)Nc2ccccc2F)C1=O (centres unmarked) [Compound 1129] | 0 | 20 | 0 | – | – | – | – | – | – | – | – | – | pest or weed control at 500 g/ha (Kochia (Kochia scoparia); [6]): 50%; pest or weed control at 125 g/ha [1, 7]: 80%; pest or weed control at 500 g/ha [1, 8]: 90%; pest or weed control at 500 g/ha [2, 10]: 50%; pest or weed control at 125 g/ha [3, 11]: 90%; pest or weed control at 500 g/ha [3, 12]: 90%; pest or weed control at 500 g/ha [4, 14]: 0% |
| 216 to 220 | CN1CC(c2cccc(O)c2)C(C(=O)Nc2cccc(F)c2F)C1=O (centres unmarked) [Compound 1130] | 0 | 0 | 0 | – | – | – | – | – | – | – | – | – | pest or weed control at 500 g/ha (Kochia (Kochia scoparia); [6]): 0%; pest or weed control at 125 g/ha [1, 7]: 0%; pest or weed control at 500 g/ha [1, 8]: 0%; pest or weed control at 500 g/ha [2, 10]: 0%; pest or weed control at 125 g/ha [3, 11]: 0%; pest or weed control at 500 g/ha [3, 12]: 30%; pest or weed control at 500 g/ha [4, 14]: 0% |
